Test results taken from patent publication US20210009557A1, “ACYCLIC CXCR4 INHIBITORS AND USES THEREOF” (X4 Pharmaceuticals, Inc., priority 2017, published 2021).

Experiments:
[1] = biological target: T1, Jurkat cells expressing CXCR4 (Homo sapiens, UniProt P61073); experiment: Chemokine (CXCL12-AF647) binding inhibition assay; settings: CXCL12-AF647 25 ng/mL, read-out: IC50 CXCL-12 binding Jurkat
T1 construct: Jurkat cells expressing CXCR4; endogenous in cells; host or cells: Jurkat cells
Procedure: Jurkat cells expressing CXCR4 were washed once with assay buffer (Hanks' balanced salt solution with 20 mM HEPES buffer and 0.2% bovine serum albumin, pH 7.4) and then incubated for 15 min at room temperature with the test compounds diluted in assay buffer at dose-dependent concentrations. Subsequently, CXCL12-AF647 (25 ng/mL) was added to the compound-incubated cells. The cells were incubated for 30 min at room temperature. Thereafter, the cells were washed twice in assay buffer, fixed in 1% paraformaldehyde in PBS, and analyzed on the FL4 channel of a FACSCalibur flow cytometer equipped with a 635-nm red diode laser (Becton Dickinson, San Jose, Calif., USA).
The percentages of inhibition of CXCL12-AF647 binding were calculated according to the formula: [1−((MFI−MFINC)/(MFIPC−MFINC))]×100 where MFI is the mean fluorescence intensity of the cells incubated with CXCL12-AF647 in the presence of the inhibitor, MFINC is the mean fluorescence intensity measured in the negative control (i.e., autofluorescence of unlabeled cells), and MFIPC is the mean fluorescence intensity of the positive control (i.e., cells exposed to CXCL12-AF647 alone).

[2] = in vitro; settings: human, Caco-2, pH 7.4
Procedure: The goal of this assay was to evaluate the intestinal absorption potential of drug candidates using Caco-2 cell lines.
Experimental Procedure • 1. Pre-warm Pre-warm HBSS Buffer in 37° C. water bath • 2. Sonicate Take compounds from −20° C., sonicate for a few minutes (no less than 1 minute) • 3. Solution preparation
For A-to-B Direction: • HBSS buffer with 0.3% DMSO and 5 μM LY: add 150 μL DMSO and 50 μL LY (5 mM) into 50 ml HBSS buffer (pH 7.4). • HBSS buffer with 0.1% DMSO and 5 μM LY: add 50 μL DMSO and 50 μL LY (5 mM) into 50 mL HBSS buffer (pH 7.4).
For B-to-A Direction: • HBSS buffer with 0.3% DMSO: add 150 μL DMSO into 50 ml HBSS buffer (pH 7.4). HBSS buffer with 0.1% DMSO: add 50 μL DMSO into 50 ml HBSS buffer (pH 7.4).
For A-to-B Direction: • Prepare HBSS buffer with 0.4% DMSO: add 200 μL DMSO into 50 ml HBSS buffer (pH 7.4).
For B-to-A Direction: • Prepare HBSS buffer with 0.4% DMSO and 5 μM LY: add 200 μL DMSO and 50 μL LY (5 mM) into 50 ml HBSS buffer (pH 7.4).
• 4. Measure TEER Take cell culture plate out of incubator, wash the cell monolayers with HBSS buffer, and then measure TEER values at Rm temperature. • 5. Centrifuge Centrifuge the compound solution (from step 3) at 4000 rpm for 5 min before loading to donor chambers. • 6. Dosing Add solution based on the volumes listed in the following table (make sure to take extra 100 μL of donor sample for T0 as Backup).
• 7. Apical LYTO samples To determine LY concentration in the apical chamber, take 100 μL sample from apical chambers into an opaque plate for LYTO. • 8. Pre-warm Pre-warm apical and basolateral plates at 37° C. for about 5 min, then begin transport by placing the apical plate onto basolateral plate. • 9. Incubation Keep the plates in incubator at 37° C. for 90 min. • 10.
• Prepare 1× solution: • 3 μL (20×)+57 μL of 0.4% DMSO HBSS+60 μL ACN with IS (Osalmid or Imipramine)—120 μL (1×) • 11. Transport termination Separate the apical plate from the basolateral plate after 90-min incubation. • 12. Measure LY Take 100 μL samples from basolateral plate to an opaque plate as LYT90. • 13. Measure LY concentrations for LYTO and LYT90 by Fluorometer (at excitation of 485 nm/emission of 535 nm). • 14.
Drug permeability: Papp=(VA/(Area×time))×([drug]accepter/(([drug]initial, donor)×Dilution Factor) • Where VA is the volume in the acceptor well, area is the surface area of the membrane and time is the total transport time in seconds.
For Millicell-24 Cell Culture Plates: surface area of the membrane=0.7 cm^2, VA=0.8 mL (A-to-B) or 0.4 mL (B-to-A)

[3] = biological target: T2, CXCR-4 transfected U87 cell line (U87.CXCR4) (Homo sapiens, UniProt P61073); experiment: Intracellular CXCL-12-induced calcium mobilization assay (FLIPR); format: cell-based; settings: U87.CXCR4 cells; CXCL-12 25-50 ng/mL; compounds added 15 minutes before; read-out: IC50 CXCL-12 Ca2+ flux U87.CXCR4+
T2 construct: expressed in transfected cells; host or cells: U87 cell line (U87.CXCR4)
T2 sequence (P61073 whole entry): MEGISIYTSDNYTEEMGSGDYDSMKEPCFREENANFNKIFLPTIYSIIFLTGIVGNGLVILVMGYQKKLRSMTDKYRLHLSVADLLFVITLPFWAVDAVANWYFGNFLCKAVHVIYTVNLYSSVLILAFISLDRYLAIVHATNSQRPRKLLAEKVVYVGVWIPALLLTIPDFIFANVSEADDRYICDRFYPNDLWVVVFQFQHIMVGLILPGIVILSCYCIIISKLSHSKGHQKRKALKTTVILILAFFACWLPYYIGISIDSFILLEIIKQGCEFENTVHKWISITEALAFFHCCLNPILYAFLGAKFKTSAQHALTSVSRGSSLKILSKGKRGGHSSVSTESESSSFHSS
Procedure: Intracellular calcium mobilization induced by chemokines orchemokine-derived peptides were evaluated using a calcium responsive fluorescent probe and a FLIPR system. The CXCR-4 transfected U87 cell line (U87.CXCR4) cells were seeded in gelatine-coated black-wall 96-well plates at 20,000 cells per well and incubated for 12 hours. Cells were then loaded with the fluorescent calcium probe Fluo-2 acetoxymethyl at 4 μM final concentration in assay buffer (Hanks' balanced salt solution with 20 mM HEPES buffer and 0.2% bovine serum albumin, pH 7.4) for 45 min at 37′C. The intracellular calcium mobilization induced by the CXCL-12 (25-50 ng/mL) was then measured at 37° C. by monitoring the fluorescence as a function of time in all the wells simultaneously using a fluorometric imaging plate reader (FLIPR Tetra, Molecular Devices).

T1 sequence (P61073 whole entry): as above

Row | Compound | IC50 [1] [nM] | Papp A→B at 90 min, 10 μM [2] [×10⁻⁶ cm/s] | Papp B→A at 90 min, 10 μM [2] [×10⁻⁶ cm/s] | efflux ratio at 90 min, 10 μM [2] | IC50 [3] [nM]
1 | OCCCN(Cc1nc2ccccc2[nH]1)[C@H]1CCCc2cccnc21 [Compound I-19] | 0.01 to 100 | > 10 | > 10 | 0.1 to 10 | 100 to 1000
2 | c1cnc2c(c1)CCC[C@@H]2N(CCc1cscn1)Cc1nc2ccccc2[nH]1 [Compound I-20] | 0.01 to 100 | > 10 | > 10 | 0.1 to 10 | 0.01 to 100
3 | NC(=O)CCN(Cc1nc2ccccc2[nH]1)[C@H]1CCCc2cccnc21 [Compound I-21, (S)-3-(((1H-benzo[d]imidazol-2-yl)methyl)(5,6,7,8-tetrahydroquinolin-8-yl)amino)propanamide] | 0.01 to 100 | < 5 | > 10 | > 30 | 100 to 1000
4 | Cn1c(CN(CCC(N)=O)[C@H]2CCCc3cccnc32)nc2ccccc21 [Compound I-22] | 0.01 to 100 | 5 to 10 | > 10 | 10 to 30 | 100 to 1000
5 | Cc1cccnc1CN(CCC(N)=O)[C@H]1CCCc2cccnc21 [Compound I-23] | 0.01 to 100 | 5 to 10 | > 10 | 10 to 30 | ≥ 1000
6 | NC(=O)CCN(Cc1ncccc1Cl)[C@H]1CCCc2cccnc21 [Compound I-24] | 0.01 to 100 | > 10 | > 10 | 0.1 to 10 | ≥ 1000
7 | Cn1c(CN(CCc2c[nH]cn2)[C@H]2CCCc3cccnc32)nc2ccccc21 [Compound I-25] | 0.01 to 100 | < 5 | > 10 | 10 to 30 | 0.01 to 100
8 | Cc1cccnc1CN(CCc1c[nH]cn1)[C@H]1CCCc2cccnc21 [Compound I-26] | 0.01 to 100 | < 5 | > 10 | 10 to 30 | ≥ 1000
9 | Clc1cccnc1CN(CCc1c[nH]cn1)[C@H]1CCCc2cccnc21 [Compound I-27, (S)—N-(2-(1H-imidazol-4-yl)ethyl)-N-((3-chloropyridin-2-yl)methyl)-5,6,7,8-tetrahydroquinolin-8-amine] | 0.01 to 100 | 5 to 10 | > 10 | 0.1 to 10 | ≥ 1000
10 | Clc1cccnc1CN(CCc1cnc[nH]1)Cc1ncccc1Cl [Compound I-28] | 0.01 to 100 | > 10 | > 10 | 0.1 to 10 | 100 to 1000
11 | COc1cccc(CCN(Cc2ncccc2C)Cc2ncccc2C)n1 [Compound I-31, 2-(6-Methoxypyridin-2-yl)-N,N-bis((3-methylpyridin-2-yl)methyl)ethan-1-amine] | 0.01 to 100 | > 10 | > 10 | 0.1 to 10 | 0.01 to 100
12 | COc1ccc(CCN(Cc2ncccc2C)Cc2ncccc2C)nc1 [Compound I-32] | 0.01 to 100 | > 10 | > 10 | 0.1 to 10 | ≥ 1000
13 | COc1ccnc(CCN(Cc2ncccc2C)Cc2ncccc2C)c1 [Compound I-33] | 0.01 to 100 | > 10 | > 10 | 0.1 to 10 | ≥ 1000
14 | Cc1cccnc1CN(CCc1cnc[nH]1)Cc1ncccc1C(C)C [Compound I-34] | 0.01 to 100 | 5 to 10 | > 10 | 0.1 to 10 | 100 to 1000
15 | CC(C)c1cccnc1CN(CCc1cnc[nH]1)Cc1ncccc1Cl [Compound I-35] | 0.01 to 100 | > 10 | > 10 | 0.1 to 10 | 100 to 1000
16 | Cc1cccnc1CN(CCc1cnc[nH]1)Cc1nccc2ccccc12 [Compound I-36] | 0.01 to 100 | < 5 | > 10 | 10 to 30 | 0.01 to 100
17 | Clc1cccnc1CN(CCc1cnc[nH]1)Cc1nccc2ccccc12 [Compound I-37] | 0.01 to 100 | 5 to 10 | > 10 | 0.1 to 10 | 0.01 to 100
18 | CC(C)c1cccnc1CN(CCc1cnc[nH]1)Cc1ncccc1C(C)C [Compound I-38] | 100 to 1000 | 5 to 10 | > 10 | 0.1 to 10 | ≥ 1000
19 | Clc1cccnc1CN(CCc1cnc[nH]1)Cc1ncccc1-c1ccccc1 [Compound I-39] | 0.01 to 100 | > 10 | > 10 | 0.1 to 10 | ≥ 1000
